Measured values taken from PubChem BioAssay (NCI).
“And” between values parts separate entries of the source, which are not always exact repeats. Equal values may be shown once.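 These data come from cells grown in 96-well plates and exposed to compound for 48 hours at five concentrations. Abbreviation: GI50, concentration required for 50% inhibition of growth. TGI denotes the concentration required for complete inhibition of growth.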 Numbered stars: 1 amine (or outer) side, 2 acyl side, 3 side chain; on linkers, the order of the positions; unused ones are H or OH. Bridge positions count the residues as written; N and C are the ends. Square brackets hold non-standard residues; d marks the D form. Peptide text beside a SMILES is read from it. I, II: the chains in the order shown. Actinocin(1to9) = Cc1c2oc3c(C)ccc(C(=O)[*:2])c3nc-2c(C(=O)[*:1])c(N)c1=O; NMeV = CN[CH](C(=O)O)C(C)C; Sar = CNCC(=O)O

Columns and labels:
Assay in all cases: NCI-60 cell line screen, 48 h; in the data active = GI50 below about 0.43 µM; inactive = the rest
786-0 renal = system: 786-0 renal
A498 renal = system: A498 renal
A549 NSCLC = system: A549 NSCLC
ACHN renal = system: ACHN renal
BT-549 breast = system: BT-549 breast
COLO 205 colon = system: COLO 205 colon
DU-145 prostate = system: DU-145 prostate
EKVX NSCLC = system: EKVX NSCLC
HCT-116 colon = system: HCT-116 colon
HCT-15 colon = system: HCT-15 colon
HL-60(TB) leukemia = system: HL-60(TB) leukemia
HOP-92 NSCLC = system: HOP-92 NSCLC
HS 578T breast = system: HS 578T breast
IGROV1 ovarian = system: IGROV1 ovarian
K-562 leukemia = system: K-562 leukemia
KM12 colon = system: KM12 colon
M14 melanoma = system: M14 melanoma
MALME-3M melanoma = system: MALME-3M melanoma
MCF7 breast = system: MCF7 breast
MDA-MB-231 breast = system: MDA-MB-231 breast
MDA-MB-435 = system: MDA-MB-435
MDA-N = system: MDA-N
MOLT-4 leukemia = system: MOLT-4 leukemia
NCI-H226 lung = system: NCI-H226 lung
NCI-H23 lung = system: NCI-H23 lung
NCI-H522 lung = system: NCI-H522 lung
NCI/ADR-RES ovarian = system: NCI/ADR-RES ovarian
OVCAR-4 ovarian = system: OVCAR-4 ovarian
OVCAR-5 ovarian = system: OVCAR-5 ovarian
PC-3 prostate = system: PC-3 prostate
RPMI-8226 leukemia = system: RPMI-8226 leukemia
RXF 393 renal = system: RXF 393 renal
SF-539 CNS = system: SF-539 CNS
SK-MEL-2 melanoma = system: SK-MEL-2 melanoma
SK-MEL-28 melanoma = system: SK-MEL-28 melanoma
SK-MEL-5 melanoma = system: SK-MEL-5 melanoma
SK-OV-3 ovarian = system: SK-OV-3 ovarian
SN12C renal = system: SN12C renal
SNB-19 CNS = system: SNB-19 CNS
SNB-75 CNS = system: SNB-75 CNS
SR leukemia = system: SR leukemia
TK-10 renal = system: TK-10 renal
U251 CNS = system: U251 CNS
UACC-257 melanoma = system: UACC-257 melanoma
CAKI-1 renal = system: CAKI-1 renal
CCRF-CEM leukemia = system: CCRF-CEM leukemia
HOP-62 NSCLC = system: HOP-62 NSCLC
HT29 colon = system: HT29 colon
LOX IMVI melanoma = system: LOX IMVI melanoma
OVCAR-3 ovarian = system: OVCAR-3 ovarian
OVCAR-8 ovarian = system: OVCAR-8 ovarian
SF-268 CNS = system: SF-268 CNS
SF-295 CNS = system: SF-295 CNS
SW-620 colon = system: SW-620 colon
T-47D breast = system: T-47D breast
UACC-62 melanoma = system: UACC-62 melanoma
UO-31 renal = system: UO-31 renal
HCC-2998 colon = system: HCC-2998 colon
NCI-H460 lung = system: NCI-H460 lung

CCC(C)C1NC(=O)C(NC(=O)c2c3nc4c(C(=O)NC5C(=O)NC(C(C)C)C(=O)N6CCCC6C(=O)N(C)CC(=O)N(C)C(C(C)C)C(=O)OC5C)ccc(C)c4oc-3c(C)c(=O)c2N)C(C)OC(=O)C(C(C)C)N(C)C(=O)CN(C)C(=O)C2CCCN2C1=O (configuration not stated) (I: TIP[Sar][NMeV] / II: TVP[Sar][NMeV]; ester I:1-I:C, II:1-II:C; linker I:N-II:N via Actinocin(1to9); configuration not given here)
1.23 µM: TGI (SNB-19 CNS)
> 100 µM: TGI (MCF7 breast)
0.0158 µM: TGI (NCI-H522 lung)
0.906 µM: TGI (IGROV1 ovarian)
14.2 µM: TGI (HCT-15 colon)
active: GI50 (NCI/ADR-RES ovarian) 0.0239 µM
0.0163 µM: TGI (COLO 205 colon)
10.1 µM: TGI (U251 CNS)
0.161 µM: TGI (M14 melanoma)
0.0947 µM and 0.0301 µM: TGI (PC-3 prostate)
0.363 µM: TGI (HS 578T breast)
0.028 µM: TGI (MALME-3M melanoma)
0.191 µM: TGI (KM12 colon)
0.71 µM: TGI (DU-145 prostate)
13.9 µM: TGI (A549 NSCLC)
0.579 µM: TGI (SNB-75 CNS)
0.404 µM: TGI (SR leukemia)
0.179 µM and 0.0919 µM: TGI (EKVX NSCLC)
0.163 µM: TGI (HL-60(TB) leukemia)
0.0553 µM and 0.0126 µM: TGI (NCI-H23 lung)
13.2 µM: TGI (SK-OV-3 ovarian)
0.0102 µM: TGI (RXF 393 renal)
0.153 µM: TGI (NCI-H226 lung)
0.0753 µM and 0.261 µM: TGI (MDA-MB-231 breast)
0.00433 µM: TGI (A498 renal)
0.0377 µM and 0.0261 µM: TGI (ACHN renal)
0.0667 µM and 0.0163 µM: TGI (MOLT-4 leukemia)
0.0476 µM: TGI (HOP-92 NSCLC)
0.0323 µM: TGI (RPMI-8226 leukemia)
0.0627 µM: TGI (BT-549 breast)
0.0302 µM: TGI (MDA-MB-435)
17.9 µM: TGI (TK-10 renal)
0.739 µM: TGI (OVCAR-4 ovarian)
0.0244 µM: TGI (MDA-N)
0.141 µM and 0.669 µM: TGI (786-0 renal)
0.0132 µM: TGI (OVCAR-5 ovarian)
0.0409 µM: TGI (SK-MEL-28 melanoma)
0.107 µM: TGI (SF-539 CNS)
0.0266 µM: TGI (UACC-257 melanoma)
0.498 µM: TGI (SN12C renal)
0.111 µM: TGI (SK-MEL-2 melanoma) | TGI (SK-MEL-5 melanoma)
4.8 µM: TGI (HCT-116 colon)
0.105 µM: TGI (K-562 leukemia)
3.56 µM: TGI (NCI/ADR-RES ovarian)

CC(=O)c1cccc(NC(=O)/C(=N\NC(=S)NN)C2C(=O)Nc3ccccc3S2=O)c1 (configuration not stated)
> 100 µM: TGI (786-0 renal) | TGI (A498 renal) | TGI (A549 NSCLC) | TGI (ACHN renal) | TGI (BT-549 breast) | TGI (CAKI-1 renal) | TGI (CCRF-CEM leukemia) | TGI (EKVX NSCLC) | TGI (HCT-116 colon) | TGI (HL-60(TB) leukemia) | TGI (HOP-62 NSCLC) | TGI (HOP-92 NSCLC) | TGI (HS 578T breast) | TGI (HT29 colon) | TGI (IGROV1 ovarian) | TGI (K-562 leukemia) | TGI (KM12 colon) | TGI (LOX IMVI melanoma) | TGI (M14 melanoma) | TGI (MALME-3M melanoma) | TGI (MCF7 breast) | TGI (MDA-MB-231 breast) | TGI (MDA-MB-435) | TGI (MDA-N) | TGI (MOLT-4 leukemia) | TGI (NCI-H226 lung) | TGI (NCI-H23 lung) | TGI (NCI-H522 lung) | TGI (NCI/ADR-RES ovarian) | TGI (OVCAR-3 ovarian) | TGI (OVCAR-5 ovarian) | TGI (OVCAR-8 ovarian) | TGI (PC-3 prostate) | TGI (RPMI-8226 leukemia) | TGI (RXF 393 renal) | TGI (SF-268 CNS) | TGI (SF-295 CNS) | TGI (SF-539 CNS) | TGI (SK-MEL-2 melanoma) | TGI (SK-MEL-28 melanoma) | TGI (SK-MEL-5 melanoma) | TGI (SK-OV-3 ovarian) | TGI (SN12C renal) | TGI (SNB-19 CNS) | TGI (SNB-75 CNS) | TGI (SR leukemia) | TGI (SW-620 colon) | TGI (T-47D breast) | TGI (TK-10 renal) | TGI (U251 CNS) | TGI (UACC-257 melanoma) | TGI (UACC-62 melanoma) | TGI (UO-31 renal)

C=C1C(OCCO)OC2O[C@]3(C)CCC4[C@H](C)CCC1C24OO3 (some centres not stated)
10.2 µM: TGI (UO-31 renal)
14.3 µM: TGI (COLO 205 colon)
28.4 µM: TGI (CCRF-CEM leukemia)
40.5 µM: TGI (CAKI-1 renal)
16.5 µM: TGI (RPMI-8226 leukemia)
19.2 µM: TGI (LOX IMVI melanoma) | TGI (NCI-H522 lung)
> 100 µM: TGI (786-0 renal) | TGI (A498 renal) | TGI (A549 NSCLC) | TGI (ACHN renal) | TGI (DU-145 prostate) | TGI (EKVX NSCLC) | TGI (HCC-2998 colon) | TGI (HCT-116 colon) | TGI (HCT-15 colon) | TGI (HOP-62 NSCLC) | TGI (HS 578T breast) | TGI (HT29 colon) | TGI (K-562 leukemia) | TGI (KM12 colon) | TGI (M14 melanoma) | TGI (MALME-3M melanoma) | TGI (MCF7 breast) | TGI (NCI-H460 lung) | TGI (NCI/ADR-RES ovarian) | TGI (OVCAR-3 ovarian) | TGI (OVCAR-4 ovarian) | TGI (OVCAR-5 ovarian) | TGI (PC-3 prostate) | TGI (SF-268 CNS) | TGI (SF-295 CNS) | TGI (SF-539 CNS) | TGI (SK-MEL-2 melanoma) | TGI (SK-MEL-28 melanoma) | TGI (SK-MEL-5 melanoma) | TGI (SK-OV-3 ovarian) | TGI (SNB-19 CNS) | TGI (SW-620 colon) | TGI (T-47D breast) | TGI (U251 CNS) | TGI (UACC-257 melanoma) | TGI (UACC-62 melanoma)
12.5 µM: TGI (OVCAR-8 ovarian)
71.2 µM: TGI (BT-549 breast)
27.9 µM: TGI (MOLT-4 leukemia)
53.6 µM: TGI (NCI-H23 lung)
26.2 µM: TGI (SR leukemia)
83.6 µM: TGI (MDA-MB-435)
15.6 µM: TGI (HL-60(TB) leukemia)
34.9 µM: TGI (IGROV1 ovarian)
87.9 µM: TGI (MDA-N)
inactive: GI50 (786-0 renal) 24.5 µM | GI50 (A498 renal) > 100 µM | GI50 (A549 NSCLC) 28.4 µM | GI50 (ACHN renal) 31.4 µM | GI50 (BT-549 breast) 10.8 µM | GI50 (CAKI-1 renal) 19 µM | GI50 (CCRF-CEM leukemia) 4.92 µM | GI50 (COLO 205 colon) 2.87 µM | GI50 (DU-145 prostate) 36.3 µM | GI50 (EKVX NSCLC) 23.2 µM | GI50 (HCC-2998 colon) > 100 µM | GI50 (HCT-116 colon) 8.69 µM | GI50 (HCT-15 colon) 3.88 µM | GI50 (HL-60(TB) leukemia) 3.1 µM | GI50 (HOP-62 NSCLC) 52.7 µM | GI50 (HS 578T breast) 19.9 µM | GI50 (HT29 colon) 7.54 µM | GI50 (IGROV1 ovarian) 12.3 µM | GI50 (K-562 leukemia) 4.16 µM | GI50 (KM12 colon) 6.04 µM | GI50 (LOX IMVI melanoma) 4.15 µM | GI50 (M14 melanoma) 78.4 µM | GI50 (MALME-3M melanoma) 52.7 µM | GI50 (MCF7 breast) 17.4 µM | GI50 (MDA-MB-435) 12.9 µM | GI50 (MDA-N) 14.8 µM | GI50 (MOLT-4 leukemia) 1.96 µM | GI50 (NCI-H23 lung) 7.46 µM | GI50 (NCI-H460 lung) > 100 µM | GI50 (NCI-H522 lung) 4.93 µM | GI50 (NCI/ADR-RES ovarian) 36 µM | GI50 (OVCAR-3 ovarian) 15.6 µM | GI50 (OVCAR-4 ovarian) 6.12 µM | GI50 (OVCAR-5 ovarian) 19.6 µM | GI50 (OVCAR-8 ovarian) 2.16 µM | GI50 (PC-3 prostate) 4.11 µM | GI50 (RPMI-8226 leukemia) 0.591 µM | GI50 (SF-268 CNS) 43.4 µM | GI50 (SF-295 CNS) > 100 µM | GI50 (SF-539 CNS) 36.6 µM | GI50 (SK-MEL-2 melanoma) 71.1 µM | GI50 (SK-MEL-28 melanoma) > 100 µM | GI50 (SK-MEL-5 melanoma) 23.8 µM | GI50 (SK-OV-3 ovarian) > 100 µM | GI50 (SNB-19 CNS) > 100 µM | GI50 (SR leukemia) 2.36 µM | GI50 (SW-620 colon) 10.9 µM | GI50 (T-47D breast) 1.56 µM | GI50 (U251 CNS) 35 µM | GI50 (UACC-257 melanoma) > 100 µM | GI50 (UACC-62 melanoma) 42.7 µM | GI50 (UO-31 renal) 2.78 µM
